In ChEMBL document CHEMBL3885881, “DrugMatrix”:

Species: Rattus norvegicus
Assay: DrugMatrix - Regimen: Daily Repeat
Type: toxicity, organism-based, Sprague-Dawley
Set-up: regimen Daily Repeat, gender Male, age 6-8 weeks
Settings: in vivo, po, route oral GAVAGE, vehicle .5 % CMC; for URIC ACID / ALANINE AMINOTRANSFERASE / ALBUMIN / ALKALINE PHOSPHATASE / ASPARTATE AMINOTRANSFERASE / BLOOD UREA NITROGEN / CARBON DIOXIDE / CHLORIDE / CHOLESTEROL / CREATINE PHOSPHOKINASE / CREATININE / GLUCOSE / LACTATE DEHYDROGENASE / LIPASE / PHOSPHORUS / POTASSIUM / SODIUM / TOTAL BILIRUBIN / TOTAL PROTEIN: tissue Plasma; for ABSOLUTE BASOPHIL / ABSOLUTE EOSINOPHIL / ABSOLUTE LYMPHOCYTE / ABSOLUTE MONOCYTE / ABSOLUTE SEGMENTED NEUTROPHIL / BASOPHIL / EOSINOPHIL / ERYTHROCYTE COUNT / HEMATOCRIT / HEMOGLOBIN / LEUKOCYTE COUNT / LYMPHOCYTE / MEAN CORPUSCULAR HEMOGLOBIN / MEAN CORPUSCULAR HEMOGLOBIN CONCENTRATION / MEAN CORPUSCULAR VOLUME / MONOCYTE / NEUTROPHIL / NUCLEATED RED BLOOD CELLS / PLATELET COUNT: tissue Blood
[1] = 10 mg/kg, 120 h, dose level Low, time 5 day
[2] = 400 mg/kg, 72 h, dose level High, time 3 day
[3] = 400 mg/kg, 120 h, dose level High, time 5 day

CC(C)(C#N)c1cc(Cn2cncn2)cc(C(C)(C)C#N)c1 [ANASTROZOLE]
URIC ACID (10 mg/kg, 72 h, dose level Low, time 3 day): 1.33 mg/dL
ABSOLUTE BASOPHIL [1]: 0 CELLS/uL
ABSOLUTE EOSINOPHIL [1]: 0 CELLS/uL
ABSOLUTE LYMPHOCYTE [1]: 12980 CELLS/uL
ABSOLUTE MONOCYTE [1]: 0 CELLS/uL
ABSOLUTE SEGMENTED NEUTROPHIL [1]: 1020 CELLS/uL
BASOPHIL [1]: 0%
EOSINOPHIL [1]: 0%
ERYTHROCYTE COUNT [1]: 5.49 x10E6/uL
HEMATOCRIT [1]: 34.93%
HEMOGLOBIN [1]: 13.93 G/DL
LEUKOCYTE COUNT [1]: 14 x10E3/uL
LYMPHOCYTE [1]: 92.67%
MEAN CORPUSCULAR HEMOGLOBIN [1]: 25.4 pg
MEAN CORPUSCULAR HEMOGLOBIN CONCENTRATION [1]: 39.87 G/DL
MEAN CORPUSCULAR VOLUME [1]: 63.57 fL
MONOCYTE [1]: 0%
NEUTROPHIL [1]: 7.33%
NUCLEATED RED BLOOD CELLS [1]: 0 /100WBC
PLATELET COUNT [1]: 1087.67 x10E3/uL
ALANINE AMINOTRANSFERASE [1]: 48 u/L
ALBUMIN [1]: 4.1 G/DL
ALKALINE PHOSPHATASE [1]: 364.67 u/L
ASPARTATE AMINOTRANSFERASE [1]: 77.33 u/L
BLOOD UREA NITROGEN [1]: 18.33 mg/dL
CARBON DIOXIDE [1]: 26 mmol/L
CHLORIDE [1]: 103 MEQ/L
CHOLESTEROL [1]: 60.67 mg/dL
CREATINE PHOSPHOKINASE [1]: 224.33 u/L
CREATININE [1]: 0.14 mg/dL
GLUCOSE [1]: 146 mg/dL
LACTATE DEHYDROGENASE [1]: 164 u/L
LIPASE [1]: 9.33 u/L
PHOSPHORUS [1]: 13.6 mg/dL
POTASSIUM [1]: 7.31 MEQ/L
SODIUM [1]: 142.23 MEQ/L
TOTAL BILIRUBIN [1]: 0.2 mg/dL
TOTAL PROTEIN [1]: 5.87 G/DL
URIC ACID [1]: 1.9 mg/dL
ABSOLUTE BASOPHIL [2]: 0 CELLS/uL
ABSOLUTE EOSINOPHIL [2]: 0 CELLS/uL
ABSOLUTE LYMPHOCYTE [2]: 16859 CELLS/uL
ABSOLUTE MONOCYTE [2]: 135.33 CELLS/uL
ABSOLUTE SEGMENTED NEUTROPHIL [2]: 1372.33 CELLS/uL
BASOPHIL [2]: 0%
EOSINOPHIL [2]: 0%
ERYTHROCYTE COUNT [2]: 5.62 x10E6/uL
HEMATOCRIT [2]: 34.7%
HEMOGLOBIN [2]: 13.6 G/DL
LEUKOCYTE COUNT [2]: 18.37 x10E3/uL
LYMPHOCYTE [2]: 91.67%
MEAN CORPUSCULAR HEMOGLOBIN [2]: 24.17 pg
MEAN CORPUSCULAR HEMOGLOBIN CONCENTRATION [2]: 39.17 G/DL
MEAN CORPUSCULAR VOLUME [2]: 61.7 fL
MONOCYTE [2]: 0.67%
NEUTROPHIL [2]: 7.67%
NUCLEATED RED BLOOD CELLS [2]: 0.33 /100WBC
PLATELET COUNT [2]: 1228.33 x10E3/uL
ALANINE AMINOTRANSFERASE [2]: 89 u/L
ALBUMIN [2]: 4.27 G/DL
ALKALINE PHOSPHATASE [2]: 433 u/L
ASPARTATE AMINOTRANSFERASE [2]: 126 u/L
BLOOD UREA NITROGEN [2]: 17.33 mg/dL
CARBON DIOXIDE [2]: 28.33 mmol/L
CHLORIDE [2]: 98.33 MEQ/L
CHOLESTEROL [2]: 69.33 mg/dL
CREATINE PHOSPHOKINASE [2]: 255 u/L
CREATININE [2]: 0.3 mg/dL
GLUCOSE [2]: 143 mg/dL
LACTATE DEHYDROGENASE [2]: 237 u/L
LIPASE [2]: 11.33 u/L
PHOSPHORUS [2]: 11.7 mg/dL
POTASSIUM [2]: 7.49 MEQ/L
SODIUM [2]: 141.93 MEQ/L
TOTAL BILIRUBIN [2]: 0.17 mg/dL
TOTAL PROTEIN [2]: 5.87 G/DL
URIC ACID [2]: 1.83 mg/dL
ABSOLUTE BASOPHIL [3]: 0 CELLS/uL
ABSOLUTE EOSINOPHIL [3]: 0 CELLS/uL
ABSOLUTE LYMPHOCYTE [3]: 11924.33 CELLS/uL
ABSOLUTE MONOCYTE [3]: 19.67 CELLS/uL
ABSOLUTE SEGMENTED NEUTROPHIL [3]: 1989.33 CELLS/uL
BASOPHIL [3]: 0%
EOSINOPHIL [3]: 0%
ERYTHROCYTE COUNT [3]: 5.98 x10E6/uL
HEMATOCRIT [3]: 35.47%
HEMOGLOBIN [3]: 14.6 G/DL
LEUKOCYTE COUNT [3]: 13.93 x10E3/uL
LYMPHOCYTE [3]: 82%
MEAN CORPUSCULAR HEMOGLOBIN [3]: 24.43 pg
MEAN CORPUSCULAR HEMOGLOBIN CONCENTRATION [3]: 41.17 G/DL
MEAN CORPUSCULAR VOLUME [3]: 59.37 fL
MONOCYTE [3]: 0.33%
NEUTROPHIL [3]: 17.67%
NUCLEATED RED BLOOD CELLS [3]: 0.67 /100WBC
PLATELET COUNT [3]: 1447 x10E3/uL
ALANINE AMINOTRANSFERASE [3]: 478.67 u/L
ALBUMIN [3]: 4.53 G/DL
ALKALINE PHOSPHATASE [3]: 622.67 u/L
ASPARTATE AMINOTRANSFERASE [3]: 1130.67 u/L
BLOOD UREA NITROGEN [3]: 22 mg/dL
CARBON DIOXIDE [3]: 21.33 mmol/L
CHLORIDE [3]: 99.33 MEQ/L
CHOLESTEROL [3]: 88.33 mg/dL
CREATINE PHOSPHOKINASE [3]: 445.67 u/L
CREATININE [3]: 0.46 mg/dL
GLUCOSE [3]: 115 mg/dL
LACTATE DEHYDROGENASE [3]: 826.67 u/L
LIPASE [3]: 14.33 u/L
PHOSPHORUS [3]: 11.97 mg/dL
POTASSIUM [3]: 6.47 MEQ/L
SODIUM [3]: 142.23 MEQ/L
TOTAL BILIRUBIN [3]: 0.17 mg/dL
URIC ACID [3]: 2.23 mg/dL
